These results are taken from ChEMBL document CHEMBL1127297, “Isolation and structure/activity features of halomon-related antitumor monoterpenes from the red alga Portieria hornemannii” (1994).

In assay [1] the test system is Tumor Cell line. Nature of the assay: Tested for in vitro cytotoxicity of 60 human tumor cell lines in National Cancer Institute (NCI). The format is functional.
The test system of assay [2] is Tumor Cell line. Nature of the assay: Tested for in vitro cytotoxicity of 60 human tumor cell lines in National Cancer Institute (NCI) and the value was expressed as LC50. The format is functional. The settings on record: read-out: LC50 (the source's name).

A word on the GI50: it is the concentration at which growth is held to half of that of the control. Low readings indicate more potent growth inhibition, high ones less potent growth inhibition. What is called TGI is the concentration giving total growth inhibition. A high value points to lower sensitivity of the cells. As to `C=C(Cl)[C@](Cl)(CBr)CCC(Cl)=C(C)C`, in the assay on Tumor Cell line [1], the GI50 is 0.741 µM and net growth stopped (TGI) at 3.39 µM. In addition, in the assay on Tumor Cell line [2], the CC50 worked out at 17 µM.

In the assay on Tumor Cell line [1], `C=C(Cl)[C@](Cl)(CBr)CC[C@H](Cl)C(C)(C)Br` yielded a GI50 of 1.32 µM and a TGI of 4.47 µM. For the same molecule, in the assay on Tumor Cell line [2], the CC50 was 16.2 µM.

In the assay with Tumor Cell line [1], `CC1(C)[C@H](Cl)C=C/C(=C\CCl)[C@@H]1Cl` gave a GI50 of 20 µM and a TGI of 47.9 µM. The CC50 in the assay with Tumor Cell line [2] was > 100 µM.

In the assay on Tumor Cell line [1], `CC1(C)C(Cl)CC(Br)/C(=C\CCl)C1Cl` (stereo unspecified) gave a GI50 of 1.15 µM and a TGI of 4.68 µM. Also, the CC50 in the assay with Tumor Cell line [2] is 20 µM.

Take `C=C[C@](Cl)(CBr)CC[C@@H](Br)C(C)(C)Cl`: in the assay on Tumor Cell line [1], the GI50 is 26.1 µM and the TGI came out at 77 µM. In addition, the CC50 with Tumor Cell line [2] is > 100 µM.

In the case of `C=CC1=CCC(Br)C(C)(C)C1Cl` (stereo unspecified), in the assay with Tumor Cell line [1], the GI50 was > 100 µM and the TGI is > 100 µM. In the assay on Tumor Cell line [2], the CC50 was > 100 µM.

In the case of `C=CC(Cl)(CBr)CCC=C(C)C` (stereo unspecified), in the assay on Tumor Cell line [1], the GI50 amounted to 33.1 µM and the TGI was > 100 µM. Moreover, in the assay with Tumor Cell line [2], the CC50 is > 100 µM.

Consider `C=C(Cl)[C@](Cl)(CBr)CCC=C(C)C`, for which, in the assay with Tumor Cell line [1], growth was halved (GI50) at 47 µM and the TGI is > 100 µM. For the same molecule, the CC50 with Tumor Cell line [2] is > 100 µM.

In the case of `CC1(C)C(Br)=C(C(Cl)CBr)CCC1Br` (stereo unspecified), in the assay on Tumor Cell line [1], the concentration for 50% growth inhibition (GI50) was found to be 21.9 µM and the TGI was determined as 45.7 µM. The CC50 in the assay with Tumor Cell line [2] was found to be 93.3 µM.

In the assay on Tumor Cell line [1], `C=C(Cl)/C(=C\Br)CCC=C(C)C` came in with a GI50 of 19.5 µM and a TGI of 44.7 µM. In addition, the CC50 with Tumor Cell line [2] was > 100 µM.

Consider `C=C(Cl)[C@](Cl)(CBr)CCC(Br)=C(C)C`, for which, in the assay on Tumor Cell line [1], the GI50 stood at 0.691 µM and the TGI is 3.02 µM. For the same molecule, the CC50 with Tumor Cell line [2] was 13.5 µM.

For the molecule `C=C(Cl)[C@](Cl)(CBr)CC[C@@H](Br)C(C)(C)Cl` [HALOMON], in the assay with Tumor Cell line [1], halving of growth (GI50) required 0.676 µM and the concentration for total growth inhibition (TGI) worked out at 3.02 µM. Also, the CC50 with Tumor Cell line [2] is 11.5 µM.
